Where two headings read alike, the source gives them in different places.
Experiments:
Format in all cases: in vivo
[1] = system: intragastric pressure; test: Increase in intragastric pressure in the rat (gastric activity); conditions: sc, 40 min, conscious starved rats, subcutaneous, 40 minute period after administration, read-out: minimum dose for activity (increase in intragastric pressure), Dose mg/kg Subcutaneously
Description: Increase in intragastric pressure in the rat
Intragastric pressure changes were recorded from previously starved conscious but retrained rats using a saline filled catheter inserted into the lumen of the stomach via a permanent gastric fistula. The catheter was connected to a physiological pressure transducer and pressure changes recorded on a hot wire pen recorder. In each animal pre-dose period of 40 minutes was allowed to obtain a measure of spontaneous activity. An index of activity was obtained by measuring the average height of pressure waves during 10 minute periods. Values for 4 such periods were obtained during assessment of spontaneous activity and for the 40 minute period after the subcutaneous administration of the compounds. Students `t` test was applied to the difference in average values obtained for spontaneous and post-compound activity.

[2] = system: apomorphine induced climbing; test: Inhibition of apomorphine induced climbing in the mouse; conditions: apomorphine 1 mg/kg s.c.; for ED50: Mus musculus, sc, scored at 10, 20 and 30 minutes, read-out: Dose mg/kg ED50 (dose that inhibits the apomorphine response by 50%)
Description: Compounds were also tested for their ability to inhibit apomorphine induced climbing in the mouse. Inactivity in this test may be indicative of a low propensity to produce extra-pyramidal side-effects in man.
The method used for this test is as set out below:
Inhibition of apomorphine induced climbing in the mouse
The test is based on that described by Protais, P., Constantin, J. and Schwartz, J. C. (1976), Psychopharmacology, 50, 1-6.
Apomorphine 1 mg/kg s.c. induces mice to climb the wall of a wire cage (inverted food hopper--11×7.5×18 cm high). Mice acclimatised in their home cages in groups of 5 are placed under the hoppers immediately after the injection of apomorphine 1 mg/kg s.c. At 10, 20 and 30 minutes after injection climbing behaviour is scored. The mice are observed for 30 seconds and scored according to the position in which they spend the majority of time, score 0--four paws on floor of cage; score 1--fore paws only on walls; score 2--all paws on wall of cage.
The scores at all 3 times for each mouse are summed for apomorphine only and for apomorphine plus compound groups of mice.
Total scores are then calculated as the percentage inhibition of climbing as follows: [formula]
From graphical representation of the results ED50 values (the dose that inhibits the apomorphine response by 50%) are then obtained.

[3] = system: intragastric pressure; test: Increase in intragastric pressure in the rat (gastric activity); conditions: conscious starved rats, oral, read-out: minimum dose for activity (increase in intragastric pressure), Dose mg/kg Orally

SMILES	minimal effective dose [1]	Dose mg/kg ED50: Ia at stated dose (inhibition of apomorphine induced climbing) ([2]; at 10 mg/kg po)	minimal effective dose [3]	ED50 ([2]; route of compound not given)	Dose mg/kg ED50: Ia at stated dose (inhibition of apomorphine induced climbing) ([2]; at 25 mg/kg, route of compound not given)
COc1cc(N)c(Cl)cc1C(=O)N[C@H]1CCN2CC[S+]([O-])C[C@H]2C1 (mixture of isomers) [Example 18, (±) 4-Amino-5-chloro-2-methoxy-N-(8β-1-aza-6α-H-4-oxothiabicyclo[4,4,0]decyl)benzamide]	1 mg/kg				
COc1cc(N)c(Cl)cc1C(=O)NC1CCN2CC[S+]([O-])CC2C1 (racemic) [Example 16, (±) 4-Amino-5-chloro-2-methoxy-N-(8α,β-1-aza-6α-H-4-oxothiabicyclo[4,4,0]decyl)benzamide]	5 mg/kg	Ia at 10 po			
COc1cc(N)c(Cl)cc1C(=O)N[C@H]1CCN2CCOC[C@@H]2C1 (relative stereo) [Example 2, (±) 4-Amino-5-chloro-2-methoxy-N-(8α-1-aza-6α-H-4-oxabicyclo [4,4,0]decyl)benzamide]	0.5 mg/kg		0.5 mg/kg	70 mg/kg	
COc1cc(N)c(Cl)cc1C(=O)N[C@H]1CCN2CCOC[C@H]2C1 (relative stereo) [Example 4, (±) 4-Amino-5-chloro-2-methoxy-N-(8β-1-aza-6α-H-4-oxabicyclo [4,4,0]delcyl)benzamide]	1 mg/kg			30 mg/kg	
COc1cc(N)c(Cl)cc1C(=O)N[C@H]1CCN2[C@H](COC[C@H]2C)C1 (relative stereo) [Example 6, (±) 4-Amino-5-chloro-2-methoxy-N-(8α-1-aza-2β-methyl-6α-H-4-oxabicyclo[4,4,0]decyl)benzamide]	0.2 mg/kg		0.5 mg/kg	40 mg/kg	
COc1cc(N)c(Cl)cc1C(=O)N[C@H]1CCN2CCSC[C@@H]2C1 (relative stereo) [Example 8, (±) 4-Amino-5-chloro-2-methoxy-N-(8α-1-aza-6α-H-4-thiabicyclo [4,4 ,0]decyl)benzamide]	5 mg/kg				Ia at 25
COc1cc(N)c(Cl)cc1C(=O)N[C@H]1CCN2CCSC[C@H]2C1 (relative stereo) [Example 10, (±) 4-Amino-5-chloro-2-methoxy-N-(8β-aza-6α-H-4-thiabicyclo [4,4,0]decyl)benzamide]	1 mg/kg				
COc1cc(N)c(Cl)cc1C(=O)N[C@H]1CCN2[C@H](COC[C@H]2c2ccccc2)C1 (relative stereo) [Example 12, (±) 4-Amino-5-chloro-2-methoxy-N-(8α-1-aza-2β-phenyl-6α-H-4-oxabicyclo[4,4,0]decyl)benzamide]				30 mg/kg	
COc1cc(N)c(Cl)cc1C(=O)N[C@@H]1CCN2[C@H](COC[C@H]2c2ccccc2)C1 (relative stereo) [Example 14, (±) 4-Amino-5-chloro-2-methoxy-N-(8β-1-aza-2β-phenyl-6α-H-4-oxabicyclo[4,4,0]decyl)benzamide monohydrate]	1 mg/kg	Ia at 10 po			

— patent US4346089A, “1-Aza-4-oxa-bicyclo [4,4,0]decane derivatives” (Beecham Group Limited, priority 1980, dated 1982)
